Consider one molecule from patent US20100291591A1, “NOVEL PLATING MEDIA” (priority 2007, published 2010).

This assay deals with S. aureus. In words: Tolerance of S. aureus towards ELF phosphate in S. aureus plating media. The class given is cell-based. The following applies: for Colony Growth: visual inspection relative to media without ELF phosphate. The source says: Varying concentrations of ELF® phosphate in S. aureus plating media were used to determine the effect on growth and sensitivity of S. aureus to ELF® phosphate. Colony growth in the presence of ELF® phosphate was compared to colony growth in media without ELF® phosphate.

Take `O=P(O)(O)O.O=c1[nH]c(-c2cc(Cl)ccc2O)nc2ccc(Cl)cc12` [ELF ® Phosphate, 6-chloro-2-(5-chloro-2-hydroxyphenyl)-quinazolin-4(3H)-one phosphate]: the “Colony Growth” value is reported as “Normal” (ELF phosphate 0.080 g/L), “Normal” (ELF phosphate 0.200 g/L), “Normal” (ELF phosphate 0.400 g/L) and “Normal” (ELF phosphate 0.600 g/L). The “effect of concentration on growth” value (S. aureus plating media, 0.080-0.600 g/L) was “no effect on growth”. For the setting “concentrations of 500 mg/L and higher”, the “inhibition of the growth of S. aureus strains” value is recorded as “do not significantly inhibit”.
